Structures can show the parent of a compound that is named as a salt. Where two headings read alike, the source gives them in different places.
Columns and labels:
[1] = system: influenza A virus (A/PR/8/34); assay: cytopathic effect (CPE) assay, MDCK cell protection by ATP detection; format: cell-based; conditions: mean IC50, MDCK cells, A/PR/8/34, 72 hours, 50% cell protection
[2] = system: Influenza virus, strain A/PR/8/34; assay: microbe, parasite or virus in culture; format: cell-based
[3] = Influenza A virus, Table 1, read-out: Flu, MDCK IC50
[4] = unidentified influenza virus, PR/8, read-out: bDNA EC50 (uM)
[5] = Influenza A virus, Table 2, read-out: Flu MDCK IC50
[6] = Table 1, read-out: Flu, MDCK IC50

Compound	IC50 [1, 3]	EC50 [2, 4]	also measured
O=C(N[C@@H]1CCC[C@H](Nc2nc(-c3n[nH]c4ncccc34)ncc2F)C1)N1CCC(F)(F)C1 [Compound I-16, 3,3-difluoro-N-((1R,3S)-3-((5-fluoro-2-(1H-pyrazolo[3,4-b]pyridin-3-yl)pyrimidin-4-yl)amino)cyclohexyl)pyrrolidine-1-carboxamide]	< 3.3 µM	< 3.3 µM	–
O=C(O)C[C@H]1C2CCC(CC2)[C@@H]1Nc1nc(-c2n[nH]c3ncc(F)cc23)ncc1F [Compound I-48, 2-((2S,3S)-3-((5-fluoro-2-(5-fluoro-1H-pyrazolo[3,4-b]pyridin-3-yl)pyrimidin-4-yl)amino)bicyclo[2.2.2]octan-2-yl)acetic acid]	–	< 3.3 µM	IC50 [1, 5]: < 3.3 µM
O=C(N[C@@H]1CCC[C@H](Nc2nc(-c3n[nH]c4ncccc34)ncc2F)C1)N1CCCCC1 [Compound I-22, N-((1R,3S)-3-((5-fluoro-2-(1H-pyrazolo[3,4-b]pyridin-3-yl)pyrimidin-4-yl)amino)-cyclohexyl)piperidine-1-carboxamide]	< 3.3 µM	< 3.3 µM	–
O=C(N[C@@H]1CCC[C@H](Nc2nc(-c3n[nH]c4ncc(Cl)cc34)ncc2F)C1)N1CCCC1 [Compound I-3, N-((1R,3S)-3-((2-(5-chloro-1H-pyrazolo[3,4-b]pyridin-3-yl)-5-fluoropyrimidin-4-yl)amino)cyclohexyl)pyrrolidine-1-carboxamide]	< 3.3 µM	< 3.3 µM	–
O=C(O)[C@H]1C2CCC(CC2)[C@@H]1Nc1nc(-c2n[nH]c3ncc(F)cc23)ncc1F [Compound I-31, (2S,3S)-3-(5-fluoro-2-(5-fluoro-1H-pyrazolo[3,4-b]pyridin-3-yl)pyrimidin-4-ylamino)bicyclo[2.2.2]octane-2-carboxylic acid sodium salt]	–	–	IC50 [1, 6]: < 3.3 µM; EC50 ([2]; read-out: bDNA EC50, Table 1, mean EC50, viral RNA level 50% of control wells): < 3.3 µM
O=C(O)[C@H]1C2CCC(CC2)[C@@H]1Nc1nc(-c2n[nH]c3ncc(F)cc23)ncc1Cl (racemic) [Compound I-33, (+/−)-trans-(2,3)-3-((5-chloro-2-(5-fluoro-1H-pyrazolo[3,4-b]pyridin-3-yl)pyrimidin-4-yl)amino)bicyclo[2.2.2]octane-2-carboxylic acid]	< 3.3 µM	< 3.3 µM	–
COC1CCN(C(=O)N[C@@H]2CCC[C@H](Nc3nc(-c4n[nH]c5ncc(Cl)cc45)ncc3F)C2)C1 (stereo partly drawn) [Compound I-5, N-((1R,3S)-3-((2-(5-chloro-1H-pyrazolo[3,4-b]pyridin-3-yl)-5-fluoropyrimidin-4-yl)amino)cyclohexyl)-3-methoxypyrrolidine-1-carboxamide]	< 3.3 µM	< 3.3 µM	–
Cn1cncc1C(=O)N[C@@H]1CCC[C@H](Nc2nc(-c3n[nH]c4ncc(F)cc34)ncc2F)C1 [Compound I-27, N-((1R,3S)-3-((5-fluoro-2-(5-fluoro-1H-pyrazolo[3,4-b]pyridin-3-yl)pyrimidin-4-yl)amino)cyclohexyl)-1-methyl-tH-imidazole-5-carboxamide]	–	–	IC50 [1, 6]: < 3.3 µM; EC50 ([2]; Table 1, mean EC50, viral RNA level 50% of control wells, read-out: bDNA EC50): < 3.3 µM
C[C@H]1CCN(C(=O)N[C@@H]2CCC[C@H](Nc3nc(-c4n[nH]c5ncccc45)ncc3F)C2)C1 [Compound I-25, (S)—N-((1R,3S)-3-((5-fluoro-2-(1H-pyrazolo[3,4-b]pyridin-3-yl)pyrimidin-4-yl)-amino)cyclohexyl)-3-methylpyrrolidine-1-carboxamide]	< 3.3 µM	< 3.3 µM	–
C[C@]1(C(=O)O)CCCC[C@@H]1Nc1nc(-c2n[nH]c3ncc(Cl)cc23)ncc1F (racemic) [Compound I-13, (+/−)-2-((2-(5-chloro-1H-pyrazolo[3,4-b]pyridin-3-yl)-5-fluoropyrimidin-4-yl)amino)-1-methylcyclohexanecarboxylic acid]	< 3.3 µM	< 3.3 µM	–
O=C(O)[C@H]1C2CCC(CC2)C1Nc1ccnc(-c2n[nH]c3ncc(F)cc23)n1 (mixture of isomers) [Compound I-43, (+/−)-trans-3-((2-(5-fluoro-1H-pyrazolo[3,4-b]pyridin-3-yl)pyrimidin-4-yl)amino)bicyclo[2.2.2]octane-2-carboxylic acid]	–	< 3.3 µM	IC50 [1, 5]: < 3.3 µM
COC(=O)[C@H]1C2CCC(CC2)[C@@H]1Nc1nc(-c2n[nH]c3ncc(F)cc23)ncc1Cl (racemic) [Compound I-32, (+/−)-trans-(2,3)-methyl 3-((5-chloro-2-(5-fluoro-1H-pyrazolo[3,4-b]pyridin-3-yl)pyrimidin-4-yl)amino)bicyclo[2.2.2]octane-2-carboxylate]	< 3.3 µM	< 3.3 µM	–
C[C@H]1CCCN1C(=O)N[C@@H]1CCC[C@H](Nc2nc(-c3n[nH]c4ncccc34)ncc2F)C1 [Compound I-15, (S)—N-((1R,3S)-3-((5-fluoro-2-(1H-pyrazolo[3,4-b]pyridin-3-yl)pyrimidin-4-yl)-amino)cyclohexyl)-2-methylpyrrolidine-1-carboxamide]	< 3.3 µM	< 3.3 µM	–
O=C(O)[C@H]1C2CCC(CC2)[C@@H]1Nc1nc(-c2n[nH]c3ncccc23)ncc1F (racemic) [Compound I-11, (+/−)-trans-3-((5-fluoro-2-(1H-pyrazolo[3,4-b]pyridin-3-yl)pyrimidin-4-yl)amino)bicyclo-[2.2.2]octane-2-carboxylic acid]	< 3.3 µM	< 3.3 µM	–
O=C(O)[C@@H]1C2CCC(CC2)[C@H]1Nc1nc(-c2n[nH]c3ncc(Cl)cc23)ncc1F [Compound I-10, (2R,3R)-3-((2-(5-chloro-1H-pyrazolo[3,4-b]pyridin-3-yl)-5-fluoropyrimidin-4-yl)-amino)bicyclo[2.2.2]octane-2-carboxylic acid]	< 3.3 µM	< 3.3 µM	–
O=C(N[C@@H]1CCC[C@H](Nc2nc(-c3n[nH]c4ncccc34)ncc2F)C1)N1CC[C@@H](F)C1 [Compound I-19, (R)-3-fluoro-N-((1R,3S)-3-((5-fluoro-2-(1H-pyrazolo[3,4-b]pyridin-3-yl)pyrimidin-4-yl)amino)cyclohexyl)pyrrolidine-1-carboxamide]	< 3.3 µM	< 3.3 µM	–
O=C(O)[C@H]1C2CCC(CC2)[C@@H]1Nc1nc(-c2n[nH]c3ncc(Cl)cc23)ncc1F [Compound I-9, (2S,3 S)-3-((2-(5-chloro-1H-pyrazolo[3,4-b]pyridin-3-yl)-5-fluoropyrimidin-4-yl)-amino)bicyclo[2.2.2]octane-2-carboxylic acid]	< 3.3 µM	< 3.3 µM	–
O=C(O)[C@@H]1CCCC2(CCCC2)[C@@H]1Nc1nc(-c2n[nH]c3ncc(F)cc23)ncc1F [Compound I-40, (6R,7R)-6-((5-fluoro-2-(5-fluoro-1H-pyrazolo[3,4-b]pyridin-3-yl)-pyrimidin-4-yl)amino)spiro[4.5]decane-7-carboxylic acid]	–	–	IC50 [1, 5]: < 3.3 µM; EC50 ([2]; read-out: bDNA EC50, Table 2, mean EC50, viral RNA level 50% of control wells): < 3.3 µM
O=C(N[C@@H]1CCC[C@H](Nc2nc(-c3n[nH]c4ncc(F)cc34)ncc2F)C1)N1CC[C@@H](F)C1 [Compound I-23, (R)-3-fluoro-N-((1R,3S)-3-((5-fluoro-2-(5-fluoro-1H-pyrazolo[3,4-b]pyridin-3-yl)pyrimidin-4-yl)amino)cyclohexyl)pyrrolidine-1-carboxamide]	< 3.3 µM	< 3.3 µM	–
O=C(O)[C@H]1CCCC2(CCCC2)[C@@H]1Nc1nc(-c2n[nH]c3ncc(F)cc23)ncc1F [Compound I-45]	–	< 3.3 µM	IC50 [1, 5]: < 3.3 µM
O=C(O)[C@@H]1CCCC2(CCCC2)[C@H]1Nc1nc(-c2n[nH]c3ncc(F)cc23)ncc1F [Compound I-46]	–	> 3.3 µM	IC50 [1, 5]: < 3.3 µM
O=C(O)[C@H]1C2CCC(CC2)[C@@H]1Nc1nc(-c2n[nH]c3ncc(F)cc23)ncc1F [Compound I-29]	< 3.3 µM	< 3.3 µM	–

Source: patent US8871774B2, “Inhibitors of influenza viruses replication” (priority 2010, dated 2014)
